Test results published in the Kinase Knowledgebase extract (Sharma et al. 2016).

Each compound was assayed against MAPK14 (human) (UniProt Q16539) (assay: Assessment of MAPK14 Kinase Activity). Details: not given.
Sequence of MAPK14 (human) (Q16539 whole entry, looked up): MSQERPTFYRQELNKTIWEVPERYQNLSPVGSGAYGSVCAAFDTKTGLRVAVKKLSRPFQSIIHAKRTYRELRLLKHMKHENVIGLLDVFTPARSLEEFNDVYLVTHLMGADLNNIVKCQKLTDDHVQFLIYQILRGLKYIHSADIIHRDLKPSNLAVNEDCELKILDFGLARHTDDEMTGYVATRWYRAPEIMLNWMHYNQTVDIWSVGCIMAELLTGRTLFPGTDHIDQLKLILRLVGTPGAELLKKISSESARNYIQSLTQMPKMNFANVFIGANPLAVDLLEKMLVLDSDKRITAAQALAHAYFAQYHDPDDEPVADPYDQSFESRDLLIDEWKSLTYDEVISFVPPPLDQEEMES

Row | SMILES | IC50 | Ki
1 | Cc1cccc(Nc2c(C(=O)N3CCNCC3)sc3c2ccc(=O)n3-c2c(F)cccc2F)n1 | 0.005 to 0.5 µM | –
2 | Cc1ccc(C(=O)NC2CC2)cc1Nc1nc(-c2ccc3[nH]ccc3c2)c(C(=O)NCc2ccccc2)s1 | > 0.1 µM | –
3 | CC(C)(N)C(=O)OCCOc1cc(-c2ccccc2Cl)c2ccc(=O)n(-c3c(Cl)cccc3Cl)c2c1 | 0.00012 µM | –
4 | Cc1cccc(Nc2c(C(=O)N3CCC[C@@H]3CO)sc3c2ccc(=O)n3-c2c(F)cccc2F)n1 | 0.015 to 0.03 µM | –
5 | CC1CC(C)CN(c2[nH]nc(-c3ccc(Cl)cc3)c2-c2ccncc2)C1 (stereo unspecified) | 0.13 µM | –
6 | Cc1c(NC(=O)c2cc(F)cc(N3CCOCC3)c2)sc(CN2CCOCC2)c1Cl | < 5 µM | –
7 | CN(CCO)c1nccc(Oc2ccc(NC(=O)c3cc(F)cc(N4CCOCC4)c3)c3ccccc23)n1 | 0.0187 µM | –
8 | CS(=O)(=O)N1CCC(Nc2ncc3cc(Oc4ccc(F)cc4F)ncc3n2)CC1 | < 0.05 µM | –
9 | CC(C)Nc1ncc2c(n1)N(CCS(C)(=O)=O)C(=O)N(c1ccccc1Cl)C2 | < 10 µM | –
10 | O=C(Nc1ccc(Oc2ccnc(NC[C@@H]3CCCO3)n2)c2ccccc12)c1cc(F)cc(N2CCCCC2)c1 | 0.0023 µM | –
11 | Cc1cccc(Nc2c(C(=O)N3CC[C@@H](O)C3)sc3c2ccc(=O)n3-c2c(F)cccc2F)n1 | 0.005 to 0.5 µM | –
12 | Clc1ccc(-c2n[nH]c(N3CCC4CCCCC4C3)c2-c2ccncc2)cc1 (stereo unspecified) | 0.26 µM | –
13 | CC(C)Oc1n[nH]c2nc(Oc3ccc(F)cc3F)ncc12 | 0.165 µM | –
14 | CNc1nccc(-c2cccnc2Oc2ccc(Nc3nnc(-c4ccc(F)cc4)c4ccccc34)cc2)n1 | 1.7 µM | –
15 | Fc1cc(-c2[nH]c(SCc3ccccc3)nc2-c2cccc(C(F)(F)F)c2)ccn1 | 2.95 µM | –
16 | COCCN1C(=O)N(c2ccccc2Cl)Cc2cnc(NC(C)C)nc21 | < 10 µM | –
17 | O=C(Nc1ccc(Oc2ccnc(N3CCCC3)n2)c2ccccc12)c1cc(F)cc(N2CCCCC2)c1 | 0.0419 µM | –
18 | CC(C)Nc1ncc2c(n1)N(CCO)C(=O)N(c1ccccc1Cl)C2 | < 10 µM | –
19 | Clc1ccc(-c2n[nH]c(N3CCCC4CCCCC43)c2-c2ccncc2)cc1 (stereo unspecified) | 0.04 µM | –
20 | N=C(N)c1ccc(Cn2c(=O)[nH]c3cc(C(=O)c4ccccc4)ccc32)cc1 | 0.13 µM | –
21 | Cc1ccc(C(=O)NC2CC2)cc1Nc1nc(-c2cccc(C#N)c2)c(C(=O)NCc2ccccc2)s1 | 0.05 to 0.1 µM | –

Row | SMILES | IC50 | Ki
22 | Fc1ccc(Oc2cc3cnc(NC4CCOCC4)nc3cn2)c(F)c1 | < 0.3 µM | –
23 | CC(Oc1nncc2cc(Nc3ccc(F)cc3)ccc12)C(F)(F)F (stereo unspecified) | 0.0091 µM | –
24 | Cc1nc(Nc2c(C(=O)N3CCC[C@@H]3CO)sc3c2ccc(=O)n3-c2c(F)cccc2F)ccc1F | 0.005 to 0.5 µM | –
25 | O=C(c1sc2c(ccc(=O)n2-c2c(F)cccc2F)c1Nc1cccc(CO)n1)N1CC[C@@H](O)C1 | 0.005 to 0.5 µM | –
26 | [O-][n+]1ccc2c(-c3ccc(F)cc3F)cc(N3CCNCC3)nc2c1-c1c(F)cccc1F | 0.00063 µM | –
27 | Cc1cccc(Nc2c(C(=O)N3CC[C@H](O)C3)sc3c2ccc(=O)n3-c2c(F)cccc2F)n1 | 0.005 to 0.5 µM | –
28 | Cc1ccc(C(=O)NC2CC2)cc1Nc1nc(-c2cccc(CN)c2)c(C(=O)NCc2ccccc2)s1 | < 0.05 µM | –
29 | Oc1cc(-c2nc(-c3ccccc3)[nH]c2-c2ccncc2)ccc1Cl | 0.0001 µM | –
30 | CSc1nc(-c2ccc(F)cc2)c(-c2ccnc(NC3CCCc4ccccc43)c2)[nH]1 (stereo unspecified) | 0.05 µM | –
31 | Cc1nc(Nc2c(C(=O)N3CC[C@@H](O)C3)sc3c2ccc(=O)n3-c2c(F)cccc2F)ccc1F | 0.005 to 0.5 µM | –
32 | CCCCC=Cc1cccc(C(=O)Nc2ccc(OCCN3CCOCC3)c3ccccc23)c1 | > 10 µM | –
33 | Cc1c(NC(=O)Nc2cc(C(C)(C)C)nn2-c2ccc(F)cc2F)sc(CN2CCOCC2)c1Cl | < 5 µM | –
34 | Clc1ccc(-c2n[nH]c(N3CCc4ccccc4C3)c2-c2ccncc2)cc1 | 0.19 µM | –
35 | Cc1nc(-c2ccccc2)c(-c2ccncc2)o1 | 5.16 µM | –
36 | Clc1ccc(-c2n[nH]c(N3CCN4CCC[C@H]4C3)c2-c2ccncc2)cc1 | 0.062 µM | –
37 | c1ccc(-c2noc(CN3CCCCC3)c2-c2ccnc(NC3CCCCC3)n2)cc1 | – | 0.002 µM
38 | Cc1cc(-c2cccc(C(=O)Nc3ccc(OCCN4CCOCC4)c4ccccc34)c2)ccc1F | 0.487 µM | –
39 | Cc1ccc(C(=O)NC2CC2)cc1Nc1nc(-c2ccccc2)cs1 | > 0.1 µM | –
40 | CN(C)C(=O)[C@@H]1CCCN1c1nccc(Oc2ccc(NC(=O)c3cc(F)cc(N4CCCCC4)c3)c3ccccc23)n1 | 0.127 µM | –
41 | Cc1nn(-c2ccccc2)c(O)c1C(=O)c1ccccc1 | > 100 µM | –
42 | CC[C@@H](NC(=O)c1cn2ncnc(Nc3cc(NC(=O)c4cc(F)cc(N5CCOCC5)c4)ccc3C)c2c1C)OC | 0.002 µM | –

Same assay, conditions: concentration not given here

Row | SMILES | inhibition
43 | C[C@@H](N)[C@H]1CC[C@H](C(=O)Nc2ccncc2)CC1 | -3%
44 | O=S(=O)(c1cccc2cnccc12)N1CCCNCC1 | -8%
45 | CCn1c(-c2nonc2N)nc2cnc(Oc3cccc(NC(=O)c4ccc(OCCN5CCOCC5)cc4)c3)cc21 | -8%
46 | Cc1cncc2cccc(S(=O)(=O)N3CCCNC[C@@H]3C)c12 | -9%
